{"source": "patent US20140024716A1", "about": "“Composition Comprising S-Allyl-L-Cysteine as Active Ingredient for Preventing or Treating Gastrointestinal Disorders” (PHARMAKING CO., LTD., priority 2009, published 2014)", "key": {"Cu/Zn-SOD": {"test_system": "Cu/Zn-SOD", "assay": "Serum Cu/Zn-SOD level in Helicobacter pylori infection model", "assay_type": "in vivo, C57BL/6 mice", "conditions": "for Cu/Zn-SOD level greater than that of the PC group by: serum", "method": "8-week old male C57BL/6 mice were classified into 4 groups, i.e., a positive control group (to which Helicobacter pylori was administered; PC), a negative control group (to which saline was administered; NC), experimental group 1 (to which Helicobacter pylori and 200 mg/kg of SAC were administered; SAC1), and experimental group 2 (to which Helicobacter pylori and 400 mg/kg of SAC were administered; SAC2). Each group had 10 mice. White powdered SAC was diluted in tap water to concentrations of 20 mg/mL and 40 mg/mL and 10 μl/g (body weight) of the diluted SAC was orally administered to the mice of the SAC1 and SAC2 groups three times a week for 10 weeks. The mice were given free access to tap water for the entire test period. The Helicobacter pylori was collected with saline to a concentration of 1×10^9 CFU/mL, and 0.2 mL of the diluted Helicobacter pylori was orally administered to each mouse for 8 weeks from 2 weeks after SAC administration. The mice were fasted for 8 hours before the infection, and 0.15 mL of 0.2 M sodium bicarbonate (NaHCO3) was administered to each mouse 10 minutes before the administration of Helicobacter pylori in order to neutralize acidified stomach due to the fasting. The same amount of saline instead of the infectious substances was administered into the NC group. The mice of all groups were fed with a normal diet. After a 10-week test period, autopsies were performed on all mice, and samples of blood and internal organs were collected for tissue pathological analyses. The test was performed according to the process of FIG. 19.\nIn this regard, a superoxide dismutase activity assay kit (BioVision, Mountain View, Calif., USA) was used. 20 μl of serum and 200 μl of a WST working solution as a substrate were mixed. 20 μl of an enzyme working solution was added thereto, and the mixture was maintained at 37° C. for 20 minutes. Absorbance was measured at 450 nm. A control reaction was conducted in the same manner as described above, except that 20 μl of distilled water was added thereto instead of serum. SOD activity (inhibition rate %) was calculated."}, "[1]": {"test_system": "gastric lesions of rats induced by hydrochloric acid-ethanol", "assay": "Hydrochloric acid-ethanol-induced gastric lesion animal model", "assay_type": "in vivo, Sprague-Dawley rats", "conditions": "for lengths of gastric lesions: 1 h before HCl-ethanol; for lengths of gastric lesions / gastric lesion inhibiting rate (%): p<0.01", "from_the_text": "SAC was purchased from TCI Chemical Co. (Tokyo, Japan). Sterile water for injection (Model No. 73H5F21, Dae Han Pharmaceutical Co. Ltd.) was used as a vehicle, and Stillen® was used as a positive control material. 0.5% CMC-Na and sterile water for injection were used as excipients for Stillen®. Hydrochloric acid was purchased from Samjung Chemical, Co., ethanol was purchased from Baker, Co., aspirin was purchased from Sigma, Co., and indomethacin was purchased from Sigma, Co.\n7 to 8-week old male specific pathogen free (SPF) HsdKoat:Sprague-Dawley®™ SD®™rats (weight of 7-week old males was in the range of 208.44 to 227.39 g, and weight of 8-week old maleswas in the range of 223.85 to 245.03 g, purchased from Koatech, Co. Ltd., Gyunggido, Korea) were quarantined and acclimated in the Animal Lab for 7 days. The rats were bred at a temperature of 23 3° C., at a relative humidity of 55 15%, with light for 12 hours (light turned on at 08:00 and light turned off at 20:00) while air was ventilated 10 to 20 times/hr in the Animal Experiment Lab of Gyeonggi Bio-Center. Other environments for breeding which might influence the test for the entire test period were not considered for use. The rats were given free access to a solid laboratory diet (Harlan Co. Ltd., USA. Teklad certified global 18% protein rodent diet, 2918C) that was supplied by Folas International. […] The rats were given free access to tap water that was sterilized using a UV sterilizer and a micro filter with water bottles.\nThe rats were classified into a vehicle control group G1 to which only a vehicle was administered, a experimental group G2 to which 100 mg/kg of SAC was administered, a experimental group G3 to which 200 mg/kg of SAC was administered, a experimental group G4 to which 400 mg/kg of SAC was administered, and a positive control group G5 to which 100 mg/kg of Stillen® (55.6 mg/kg as an active ingredient) as a positive control material were administered. Each group included 8 rats in a hydrochloric acid-ethanol-induced animal model (Experiment Example 7) and included 6 rats in an aspirin-induced animal model (Experimental Example 8) and in an indomethacin-induced animal model (Experimental Example 9).\nThe test substance was directly administered to the stomach using an injection tube equipped with a sonde for oral administration in a single dose once per day.\nThe test substances were administered. After one hour, 1.5 ml of 150 mM HCl in 60% ethanol was orally administered to each rat. The rats to which ethanol and SAC were administered were fasted without water in stainless steel breeding cages for 1 hour. After one hour from the hydrochloric acid-ethanol administration, the rats were sacrificed under anesthesia using ether and their stomachs including parts of the duodenum and esophagus were isolated. The insides of the stomachs were immediately washed with 13 ml of a 2% neutral buffered formalin, and the duodenum and esophagus parts were fixed with forceps. Then, 13 ml of the 2% neutral buffered formalin was added thereto and maintained for 5 minutes for fixation. The greater curvature of each stomach was incised, fixed to a dissection table, and unfolded to measure the lengths of gastric lesions using vernier calipers. Photographs of the unfolded stomachs were taken (FIG. 12) and the stomachs were fixed with a 10% neutral buffered formalin. […]"}}}
{"smiles": "C=CCSC[C@H](N)C(=O)O", "note": "[SAC, S-allyl-L-cysteine]", "values": [{"measurement": "Cu/Zn-SOD level greater than that of the PC group by", "setting": "Cu/Zn-SOD; SAC1 group (200 mg/kg SAC)", "value": "about 4%"}, {"measurement": "Cu/Zn-SOD level greater than that of the PC group by", "setting": "Cu/Zn-SOD; SAC2 group (400 mg/kg SAC)", "value": "about 3%"}, {"measurement": "serum Cu/Zn-SOD level versus positive control group", "setting": "Cu/Zn-SOD; SAC-administered experimental group, dose not stated", "value": "higher than that of the positive control group"}, {"measurement": "lengths of gastric lesions", "setting": "[1]; 200 mg/kg SAC oral, vehicle 209.60±28.39 mm", "value": "106.65±16.70", "unit": "mm"}, {"measurement": "gastric lesion inhibiting rate (%)", "setting": "[1]; 200 mg/kg SAC", "value": "41.12±7.97", "unit": "%"}, {"measurement": "lengths of gastric lesions", "setting": "[1]; 400 mg/kg SAC oral", "value": "72.25±19.33", "unit": "mm"}, {"measurement": "gastric lesion inhibiting rate (%)", "setting": "[1]; 400 mg/kg SAC", "value": "65.53±9.22", "unit": "%"}, {"measurement": "gastric lesion inhibiting rate (%) up to", "setting": "[1]; highest rate over SAC doses", "value": "about 66%"}]}
